Data reported in article PMC4817154 (Scientific Reports, 2016).
Changes are numbered by the printed parent chain. In names and notes the source's numbering stands. Several values for one entry are separate records, joined by “and”; a condition that tells them apart may be missing. Identical values can stand only once.

Experiments:
dmSERT-F90Y [1] = target: T1, dmSERT-F90Y (Drosophila melanogaster, UniProt P51905, F90Y); type: cell-based
T1 construct: expressed in transfected cells; host or cells: T-REx-293

dmSERT-D164A [2] = target: T2, dmSERT-D164A (Drosophila melanogaster, UniProt P51905, D164A); type: cell-based
T2 construct: expressed in transfected cells; host or cells: T-REx-293

dmSERT-M167I [3] = target: T3, dmSERT-M167I (Drosophila melanogaster, UniProt P51905, M167I); type: cell-based
T3 construct: expressed in transfected cells; host or cells: T-REx-293

dmSERT-G168A [4] = target: T4, dmSERT-G168A (Drosophila melanogaster, UniProt P51905, G168A); type: cell-based
T4 construct: expressed in transfected cells; host or cells: T-REx-293

dmSERT-N484E [5] = target: T5, dmSERT-N484E (Drosophila melanogaster, UniProt P51905, N484E); type: cell-based
T5 construct: expressed in transfected cells; host or cells: T-REx-293

dmSERT-P488T [6] = target: T6, dmSERT-P488T (Drosophila melanogaster, UniProt P51905, P488T); type: cell-based
T6 construct: expressed in transfected cells; host or cells: T-REx-293

dmSERT-I492V [7] = target: T7, dmSERT-I492V (Drosophila melanogaster, UniProt P51905, I492V); type: cell-based
T7 construct: expressed in transfected cells; host or cells: T-REx-293

ggSERT-WT = ggSERT-WT (Gallus gallus, UniProt Q6PWI2); assay: Steady-state kinetics of [3H]5-HT transport; type: cell-based, chicken (Gallus gallus)
From the text: (§1) Control cells were transfected with empty vector.

dmSERT-WT = target: T8, dmSERT-WT (Drosophila melanogaster, UniProt P51905); assay: Paroxetine inhibition of [3H]5-HT transport; type: cell-based
T8 construct: expressed in transfected cells; host or cells: T-REx-293
T8 sequence (P51905 1-622): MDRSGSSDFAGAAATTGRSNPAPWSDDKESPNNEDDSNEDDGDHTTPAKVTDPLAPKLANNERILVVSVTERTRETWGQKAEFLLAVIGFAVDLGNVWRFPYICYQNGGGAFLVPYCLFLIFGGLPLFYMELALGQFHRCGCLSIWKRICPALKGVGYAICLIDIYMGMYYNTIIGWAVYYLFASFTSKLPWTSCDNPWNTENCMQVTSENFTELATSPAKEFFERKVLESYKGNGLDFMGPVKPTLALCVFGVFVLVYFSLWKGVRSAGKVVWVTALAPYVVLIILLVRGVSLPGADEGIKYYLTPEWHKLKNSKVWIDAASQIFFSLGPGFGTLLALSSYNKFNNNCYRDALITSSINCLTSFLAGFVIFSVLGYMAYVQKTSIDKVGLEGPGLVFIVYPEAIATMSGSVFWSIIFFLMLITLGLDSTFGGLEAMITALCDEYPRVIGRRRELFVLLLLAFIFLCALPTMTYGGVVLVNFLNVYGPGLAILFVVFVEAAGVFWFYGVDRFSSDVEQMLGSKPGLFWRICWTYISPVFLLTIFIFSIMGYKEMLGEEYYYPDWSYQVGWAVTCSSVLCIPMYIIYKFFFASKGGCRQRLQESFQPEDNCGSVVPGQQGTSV

dmSERT-F90Y [8] = target: T1, dmSERT-F90Y; assay: cell-based
dmSERT-D164A [9] = target: T2, dmSERT-D164A; assay: cell-based
dmSERT-M167I [10] = target: T3, dmSERT-M167I; assay: cell-based
dmSERT-G168A [11] = target: T4, dmSERT-G168A; assay: cell-based
dmSERT-N484E [12] = target: T5, dmSERT-N484E; assay: cell-based
dmSERT-P488T [13] = target: T6, dmSERT-P488T; assay: cell-based
dmSERT-I492V [14] = target: T7, dmSERT-I492V; assay: cell-based
LeuBAT-Δ13 = LeuBAT-Δ13 construct; cited from earlier work
dmSERT = target: dmSERT; set-up: method as in PMID 8197200, PMID 9677366; conditions: read-out: published paroxetine Ki for inhibition of [3H]5-HT uptake; cited from earlier work
ggSERT = target: ggSERT; set-up: method as in PMID 15271993; conditions: read-out: published paroxetine Ki for inhibition of [3H]5-HT uptake; cited from earlier work
hsSERT-Y95F = hsSERT-Y95F (Homo sapiens, UniProt P31645, Y95F); conditions: cited from earlier work
NCCc1c[nH]c2ccc(O)cc12 = assay: cells, lysate or membranes; conditions: [3H]5-HT transport, T-REx-293 cells, average ± SEM, pH 7.4
[15] = substrate: NCCc1c[nH]c2ccc(O)cc12; assay: cells, lysate or membranes; type: cell-based, chicken (Gallus gallus); conditions: [3H]5-HT transport, T-REx-293 cells, average ± SEM, pH 7.4
From the text: as §1

Molecule: NCCc1c[nH]c2ccc(O)cc12 [5-HT, 5-hydroxytryptamine]
- % wt Vmax (dmSERT-F90Y [1]): 109.7 ± 4.2%
- % wt Vmax (dmSERT-D164A [2]): 136.0 ± 10.6%
- % wt Vmax (dmSERT-M167I [3]): 79.9 ± 22.1%
- % wt Vmax (dmSERT-G168A [4]): 330.3 ± 61.7%
- % wt Vmax (dmSERT-N484E [5]): 8.0 ± 1.8%
- % wt Vmax (dmSERT-P488T [6]): 15.1 ± 0.3%
- % wt Vmax (dmSERT-I492V [7]): 89.8 ± 8.8%
- % wt Vmax (ggSERT-WT): 100 ± 9.6%

Molecule: Fc1ccc([C@@H]2CCNC[C@H]2COc2ccc3c(c2)OCO3)cc1 [Paroxetine, (3S,4R)-3-[(2H-1,3-benzodioxol-5-yloxy)methyl]-4-(4-fluorophenyl)piperidine]
- IC50 (dmSERT-WT): 6.1 ± 1.35 nM
- Ki (dmSERT-WT; Ki, dmSERT-WT, from IC50 and Km via Cheng-Prusoff): 6.04 ± 1.33 nM
- IC50 (dmSERT-F90Y [8]): 5.31 ± 0.94 nM
- Ki (dmSERT-F90Y [8]): 5.26 ± 0.93 nM
- IC50 (dmSERT-D164A [9]): 0.86 ± 0.07 nM
- Ki (dmSERT-D164A [9]; Ki, dmSERT-D164A, from IC50 and Km via Cheng-Prusoff): 0.9 nM and 0.86 nM
- IC50 (dmSERT-M167I [10]): 2.71 ± 0.29 nM
- Ki (dmSERT-M167I [10]): 2.68 ± 0.29 nM
- IC50 (dmSERT-G168A [11]): 2.8 ± 0.66 nM
- Ki (dmSERT-G168A [11]): 2.78 ± 0.66 nM
- IC50 (dmSERT-N484E [12]): 1.9 ± 0.22 nM
- Ki (dmSERT-N484E [12]): 1.83 ± 0.21 nM
- IC50 (dmSERT-P488T [13]): 20.5 ± 1.86 nM
- Ki (dmSERT-P488T [13]): 20.3 ± 1.85 nM
- IC50 (dmSERT-I492V [14]): 16.3 ± 1.2 nM
- Ki (dmSERT-I492V [14]): 16.2 ± 1.2 nM
- Kd (LeuBAT-Δ13): ~430 nM
- Ki (dmSERT): 3.4 nM
- Ki (ggSERT): 397 nM

Molecule: OC1(c2ccc(Cl)cc2)c2ccccc2C2=NCCN21 (stereo not drawn) [mazindol]
- change in potency (hsSERT-Y95F): increase

Molecule: dmSERT-D164A (Drosophila melanogaster; D164A)
- Km (NCCc1c[nH]c2ccc(O)cc12; other: dmSERT-D164A): 10,258 ± 756 nM
- Vmax (NCCc1c[nH]c2ccc(O)cc12; other: dmSERT-D164A): 87.9 ± 6.8 pmol/min/mg total cell protein

Molecule: dmSERT-F90Y (Drosophila melanogaster; F90Y)
- Km (NCCc1c[nH]c2ccc(O)cc12; other: dmSERT-F90Y): 1,784 ± 121 nM
- Vmax (NCCc1c[nH]c2ccc(O)cc12; other: dmSERT-F90Y): 70.9 ± 2.7 pmol/min/mg total cell protein

Molecule: dmSERT-G168A (Drosophila melanogaster; G168A)
- Km (NCCc1c[nH]c2ccc(O)cc12; other: dmSERT-G168A): 3,342 ± 272 nM
- Vmax (NCCc1c[nH]c2ccc(O)cc12; other: dmSERT-G168A): 213.4 ± 39.9 pmol/min/mg total cell protein

Molecule: dmSERT-I492V (Drosophila melanogaster; I492V)
- Km (NCCc1c[nH]c2ccc(O)cc12; other: dmSERT-I492V): 3,281 ± 357 nM
- Vmax (NCCc1c[nH]c2ccc(O)cc12; other: dmSERT-I492V): 58.0 ± 5.7 pmol/min/mg total cell protein

Molecule: dmSERT-M167I (Drosophila melanogaster; M167I)
- Km (NCCc1c[nH]c2ccc(O)cc12; other: dmSERT-M167I): 1,487 ± 132 nM
- Vmax (NCCc1c[nH]c2ccc(O)cc12; other: dmSERT-M167I): 51.6 ± 14.3 pmol/min/mg total cell protein

Molecule: dmSERT-N484E (Drosophila melanogaster; N484E)
- Km (NCCc1c[nH]c2ccc(O)cc12; other: dmSERT-N484E): 522 ± 67 nM
- Vmax (NCCc1c[nH]c2ccc(O)cc12; other: dmSERT-N484E): 5.2 ± 1.2 pmol/min/mg total cell protein

Molecule: dmSERT-P488T (Drosophila melanogaster; P488T)
- Km (NCCc1c[nH]c2ccc(O)cc12; other: dmSERT-P488T): 2,737 ± 277 nM
- Vmax (NCCc1c[nH]c2ccc(O)cc12; other: dmSERT-P488T): 9.8 ± 0.2 pmol/min/mg total cell protein

B1: ggSERT-WT (Gallus gallus) (protein)
chain: MENKATSNETQPLTSKKGISDCNEGEDCKENGLLIRNPKSALRLVDDGNKVHPGQGDKEEAAQISNGYSGVQSSGPCSGMGEAEDAQCTAPAATTTTTTTTSTTCGAEGQQQLMELGDRETWSKKIDFLLSVIGYAVDLGNVWRFPYICYQNGGGAFLIPYTIMAIFGGIPLFYMELALGQYHRNGCISIWRKICPIFKGIGFAICIIDLYVASYYNTIMAWVFYYLVSSFTTELPWTSCNNAWNTGNCTTYFSKDNISWALHSISPAEEFYTRQVLQVHRSNGLDDLGGISWQLTLCLLLIFIIVYFSIWKGVKTSGKVVWVTATFPYVILFILLVRGATLPGAWRGVLYYLKPEWQKLLATEVWVDAAAQIFFSLGPGFGVLLAYASYNKFHNNCYQDALVTSTVNCLTSFVSGFVIFTVLGYMAEMRNEDVSEVAKDMGPSLLFITYAEAIANMPASTFFAIIFFLMLLTLGLDSTFAGLEGVITGVLDEFPHVWSKRREFFVLGLIIICFLGSLATLTFGGAYVVKLFEEYATGPAVLTVVFLEAVAVAWFYGITQFCNDVKEMLGFAPGWYWRVCWVAISPIFLLFVTCSFLSNPPELRLFDYNYPYWTTVVGYCIGTSSIICIPIYMAYRLIITPGTLKERILKSITPETATEIPFGDIRMNAV
- Vmax ([15]; other: ggSERT-WT): 18.4 ± 1.8 pmol/min/mg total cell protein

B2: ggSERT-D209A (Gallus gallus; D209A) (protein)
chain: B1 chain with D209A
- Km ([15]; other: ggSERT-D209A): 971 ± 71 nM
- Vmax ([15]; other: ggSERT-D209A): 73.8 ± 21.5 pmol/min/mg total cell protein
